From US20230140290A1, “SALICYLAMIDE DERIVATIVES AND RELATED METHODS OF MAKING” (THE BOARD OF REGENTS OF THE UNIVERSITY OF TEXAS SY, priority 2020, published 2023)
Like-named read-outs stand apart in the source and are kept apart here.

Legend:
[1] = test system: HAdV5-GFP; assay: Plaque assay (inhibition of HAdV plaque formation); format: cell-based, HAdV-5; settings: for Selectivity index (SI): ratio of CC50 to IC50 in plaque assay; for inhibition at 10 µM: read-out: Plaque Assay (%) Inhibition (10 μM)
Description: Plaque Assay. […] When cells reached 80-90% confluency, they were infected with HAdV5-GFP (0.06 vp/cell) and rocked for 2 h at 37° C. After the incubation the inoculum was removed, and the cells were washed once with PBS.
Plaque Assay. Compounds were tested using low MOI infections (0.06 vp/cell) and at concentrations of 10 μM and in a dose-response assay ranging from 10 to 0.3 μM in a plaque assay. […] When cells reached 80-90% confluency, they were infected with HAdV5-GFP (0.06 vp/cell) and rocked for 2 h at 37° C. After the incubation the inoculum was removed, and the cells were washed once with PBS. […] The mixture also contained the compounds in concentrations ranging from 10 to 0.3 μM.

[2] = test system: A549 cells; assay: Cytotoxicity assay (AlamarBlue); settings: read-out: CC50 (μM), cytotoxic concentration 50%; A549 cell line, 48 h
Description: Cytotoxicity Assay. The cytotoxicity of the compounds was analyzed by commercial kit AlamarBlue® (Invitrogen, Ref. DAL1025). A549 cells at a density of 5×10^3 cells per well in 96-well plates were seeded. […] Cells were then incubated at 37° C. for 48 h following the kit protocol. The cytotoxic concentration 50 (CC50) value was obtained using the statistical package GraphPad Prism. This assay was performed in duplicate.

[3] = read-out: Plaque Assay IC50 (μM), HAdV5-GFP, low MOI, 293β5 cell line

SMILES	Selectivity index (SI) [1]	inhibition at 10 µM [1]	IC50 [1, 3]	CC50 [2]	IC50 ([1]; read-out: Plaque Assay IC50, HAdV5-GFP, low MOI, 293β5 cell line)
O=C(NCc1ccc([N+](=O)[O-])cc1)c1cc(Cl)ccc1O [Compound 43, 5-Chloro-2-hydroxy-N-(4-nitrobenzyl)benzamide]	26.7	99.5 ± 0.7%	6.56 ± 0.47 µM	175 ± 43.9 µM	–
CC(C)CNc1ccc(NC(=O)c2cc(Cl)ccc2O)c(Cl)c1 [Compound 82, 5-Chloro-N-(2-chloro-4-(isobutylamino)phenyl)-2-hydroxybenzamide]	67.4	100%	0.89 µM	60 ± 15 µM	–
O=C(Nc1ccc(NCC2CCCC2)cc1Cl)c1cc(Cl)ccc1O [Compound 86, 5-Chloro-N-(2-chloro-4-((cyclopentylmethyl)amino)phenyl)-2-hydroxybenzamide]	17.3	100%	1.24 µM	21.5 µM	–
O=C(Nc1ccc(N(CC2CC2)CC2CC2)cc1Cl)c1cc(Cl)ccc1O [Compound 92, N-(4-(Bis(cyclopropylmethyl)amino)-2-chlorophenyl)-5-chloro-2-hydroxybenzamide]	20.7	100%	0.62 ± 0.01 µM	12.8 ± 4.2 µM	–
O=C(N[C@@H](Cc1ccccc1)C(=O)Nc1ccc([N+](=O)[O-])cc1Cl)c1cc(Cl)ccc1O [Compound 59, (S)-5-chloro-N-(1-((2-chloro-4-nitrophenyl)amino)-1-oxo-3-phenylpropan-2-yl)-2-hydroxybenzamide]	–	100%	–	15.2 µM	–
O=C(Nc1ccc(NCC2CC2)cc1Cl)c1cc(Cl)ccc1O [Compound 85, 5-Chloro-N-(2-chloro-4-((cyclopropylmethyl)amino)phenyl)-2-hydroxybenzamide]	10.4	100%	1.38 µM	14.4 µM	–
CCNc1ccc(NC(=O)c2cc(Cl)ccc2O)c(Cl)c1 [Compound 79, 5-Chloro-N-(2-chloro-4-(ethylamino)phenyl)-2-hydroxybenzamide]	13.9	100%	2.18 µM	30.2 ± 4.1 µM	–
O=C(Nc1cc([N+](=O)[O-])ccc1F)c1cc(Cl)ccc1O [Compound 12, 5-Chloro-N-(2-fluoro-5-nitrophenyl)-2-hydroxybenzamide]	26.2	100%	0.31 µM	8.1 ± 3.2 µM	–
O=C(Nc1cc(NC2CCCC2)ccc1F)c1cc(Cl)ccc1O [Compound 144, 5-Chloro-N-(5-(cyclopentylamino)-2-fluorophenyl)-2-hydroxybenzamide]	32.8	99.8 ± 0.4%	1.34 ± 0.05 µM	44 ± 12.8 µM	–
CCCN(CCC)c1ccc(NC(=O)c2cc(Cl)ccc2O)c(Cl)c1 [Compound 91, 5-Chloro-N-(2-chloro-4-(dipropylamino)phenyl)-2-hydroxybenzamide]	16.0	100%	0.67 ± 0.03 µM	10.7 ± 2.1 µM	–
C[C@@H](NC(=O)c1cc(Cl)ccc1O)c1ccc(Cl)cc1 [Compound 48, (R)-5-Chloro-N-(1-(4-chlorophenyl)ethyl)-2-hydroxybenzamide]	–	100%	–	31.1 ± 3.2 µM	–
O=C(NCc1ccc([N+](=O)[O-])cc1Cl)c1cc(Cl)ccc1O [Compound 30, 5-Chloro-N-(2-chloro-4-nitrobenzyl)-2-hydroxybenzamide]	–	100%	1.4 ± 0.11 µM	51.4 ± 3.7 µM	–
CC(C)(C)OC(=O)CC[C@H](NC(=O)c1cc(Cl)ccc1O)C(=O)Nc1ccc([N+](=O)[O-])cc1Cl [Compound 64, (S)-tert-Butyl 4-(5-chloro-2-hydroxybenzamido)-5-((2-chloro-4-nitrophenyl)amino)-5-oxopentanoate]	34.2	97.3 ± 0.3%	0.67 µM	22.9 µM	–
Cc1ccc(O)c(C(=O)Nc2ccc(NC3CCCC3)cc2Cl)c1 [Compound 136, N-(2-Chloro-4-(cyclopentylamino)phenyl)-2-hydroxy-5-methylbenzamide]	11.4	99.6 ± 0.5%	2.72 µM	30.9 ± 1.6 µM	–
CC(C)[C@H](NC(=O)c1cc(Cl)ccc1O)C(=O)Nc1cc(F)cc(C(F)(F)F)c1 [Compound 67, (S)-5-Chloro-N-(1-((3-fluoro-5-(trifluoromethyl)phenyl)amino)-3-methyl-1-oxobutan-2-yl)-2-hydroxybenzamide]	65.2	95.8 ± 5.9%	0.66 µM	43 µM	–
O=C(NCc1ccc(C(F)(F)F)cc1F)c1cc(Cl)ccc1O [Compound 37, 5-Chloro-N-(2-fluoro-4-(trifluoromethyl)benzyl)-2-hydroxybenzamide]	–	98.8 ± 0.8%	1.32 ± 0.04 µM	45.6 ± 7.3 µM	–
O=C(Nc1ccc(NCc2ccc(Br)s2)cc1Cl)c1cc(Cl)ccc1O [Compound 113, N-(4-(((5-Bromothiophen-2-yl)methyl)amino)-2-chlorophenyl)-5-chloro-2-hydroxybenzamide]	8.0	100%	2.58 µM	20.7 ± 4.6 µM	–
COc1ccc(CNc2ccc(NC(=O)c3cc(Cl)ccc3O)c(Cl)c2)cc1 [Compound 100, 5-Chloro-N-(2-chloro-4-((4-methoxybenzyl)amino)phenyl)-2-hydroxybenzamide]	22.4	100%	3.61 ± 0.4 µM	80.7 ± 8.2 µM	–
O=C(NCCc1ccc(F)cc1)c1cc(Cl)ccc1O [Compound 52, 5-Chloro-N-(4-fluorophenethyl)-2-hydroxybenzamide]	39.1	98.7 ± 1.8%	3.94 µM	154 µM	–
O=C(Nc1ccc(NCc2ccc(F)cc2)cc1Cl)c1cc(Cl)ccc1O [Compound 95, 5-Chloro-N-(2-chloro-4-((4-fluorobenzyl)amino)phenyl)-2-hydroxybenzamide]	16.0	100%	3.4 ± 0.54 µM	54.4 ± 12.3 µM	–
O=C(NCc1ccc(NC2CCCC2)cc1Cl)c1cc(Cl)ccc1O [Compound 145, 5-Chloro-N-(2-chloro-4-(cyclopentylamino)benzyl)-2-hydroxybenzamide]	3.6	98.5 ± 0.7%	7.97 ± 0.43 µM	28.3 ± 2.5 µM	–
C[C@H](NC(=O)c1cc(Cl)ccc1O)c1ccccc1 [Compound 47, (S)-5-Chloro-2-hydroxy-N-(1-phenylethyl)benzamide]	78.5	100%	2.54 µM	199 µM	–
O=C(CNC(=O)c1cc(Cl)ccc1O)Nc1ccc([N+](=O)[O-])cc1Cl [Compound 56, 5-Chloro-N-(2-((2-chloro-4-nitrophenyl)amino)-2-oxoethyl)-2-hydroxybenzamide]	53.2	100%	2.43 µM	129 µM	–
O=C(Nc1ccc(NC2CCCC2)c(Cl)c1)c1cc(Cl)ccc1O [Compound 143, 5-Chloro-N-(3-chloro-4-(cyclopentylamino)phenyl)-2-hydroxybenzamide]	20.1	100%	0.84 µM	16.9 ± 0.1 µM	1.34 µM
